Experimental data taken from US20220024921A1, “1,3,4-OXADIAZOLONE COMPOUND AND PHARMACEUTICAL” (NIPPON SHINYAKU CO., LTD., priority 2018, published 2022).
Where a name gives a salt, the structure may show the parent alone.

How the values were obtained:
[1] = target: PIM1 transgenic cells (Ba/F3) (Homo sapiens, UniProt P11309); experiment: Proliferation inhibitory effect on PIM1 transgenic cells; assay type: cell-based, mouse; conditions: proliferation inhibition, 72 hours, Cell Counting Kit-8, read-out: PIM1 IC50
Chain of PIM1 transgenic cells (Ba/F3) (P11309 whole entry, stated change not applied): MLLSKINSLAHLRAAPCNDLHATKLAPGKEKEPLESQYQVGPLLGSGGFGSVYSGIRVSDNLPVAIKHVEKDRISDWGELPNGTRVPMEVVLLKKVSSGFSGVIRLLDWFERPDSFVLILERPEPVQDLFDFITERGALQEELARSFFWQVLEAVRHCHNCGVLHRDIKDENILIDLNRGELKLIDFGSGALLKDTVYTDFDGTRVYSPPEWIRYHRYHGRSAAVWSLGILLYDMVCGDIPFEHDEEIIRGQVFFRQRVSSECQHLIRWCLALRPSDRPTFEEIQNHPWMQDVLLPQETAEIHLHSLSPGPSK
Procedure, shortened: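 Mouse Ba/F3 pro-B cells were retrovirally transduced with human PIM1 so that their proliferation depends on PIM1. Cells were treated with compound at 1–10000 nM final for 72 h, then read by CCK-8 (OD450−OD650). Inhibition was set against DMSO (0%) and no-cell blank (100%), and IC50 was obtained by two-parameter logistic regression.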

[2] = target: T1, PIM1 serine/threonine kinase (Homo sapiens, UniProt P11309); experiment: PIM1 serine/threonine kinase inhibitory effect; assay type: biochemical; conditions: PIM1 serine/threonine kinase activity; ATP 40 μM; 30° C., 30 minutes
T1 construct: purchased Carna Bioscience, Inc
T1 sequence (P11309 whole entry): as the sequence (P11309 whole entry, stated change not applied) above
Procedure, shortened: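 Recombinant PIM1 (0.15 μg/ml final) with 0.5 μM biotinylated substrate and 40 μM ATP in pH 7.0 HEPES/MgCl2 buffer, 30 min at 30° C. Compound range was 0.01–10000 nM final, n=2. HTRF detection with streptavidin-XL665 and anti-phospho antibody-cryptate, 1 h; IC50 from non-linear regression of the 665/620 ratio.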

A GI50 [1] of 1.3 µM and an IC50 [2] of 0.009 µM were found for O=c1[nH]nc(-c2ccc(C(F)(F)F)c(NCCC3CCNCC3)c2)o1 [Example 64, 5-[3-{[2-(piperidin-4-yl)ethyl]amino}-4-(trifluoromethyl)phenyl]-1,3,4-oxadiazol-2(3H)-one hydrochloride] in this work.

A GI50 [1] of 4.5 µM and an IC50 [2] of 0.033 µM were found for NCc1ccc(-c2cc(-c3n[nH]c(=O)o3)ccc2C(F)(F)F)cc1 [Example 20, 5-[4′-(aminomethyl)-6-(trifluoromethyl)[1,1′-biphenyl]-3-yl]-1,3,4-oxadiazol-2(3H)-one hydrochloride] in this work.

A GI50 [1] of 0.82 µM and an IC50 [2] of 0.0076 µM were found for O=c1[nH]nc(-c2ccc(Cl)c(NCC3CCNCC3)c2)o1 [Example 47, 5-(4-chloro-3-{[(piperidin-4-yl)methyl]amino}phenyl)-1,3,4-oxadiazol-2(3H)-one hydrochloride] in this work.

A GI50 [1] of 0.11 µM and an IC50 [2] of 0.0061 µM were found for C[C@@H]1CNCC[C@@H]1[C@H](C)Nc1cc(-c2n[nH]c(=O)o2)ccc1OC(F)F [Example 220, 5-[4-(difluoromethoxy)-3-({(1S)-1-[(3S,4S)-3-methylpiperidin-4-yl]ethyl}amino)phenyl]-1,3,4-oxadiazol-2(3H)-one] in this work.

A GI50 [1] of 0.1 µM and an IC50 [2] of 0.0022 µM were found for CC(N)[C@H]1CC[C@H](Nc2cc(-c3n[nH]c(=O)o3)ccc2C(F)(F)F)CC1 (some centres unmarked) [Example 39, 5-[3-{[(1r,4r)-4-(1-aminoethyl)cyclohexyl]amino}-4-(trifluoromethyl)phenyl]-1,3,4-oxadiazol-2(3H)-one hydrochloride] in this work.

A GI50 [1] of 0.064 µM and an IC50 [2] of 0.0012 µM were found for C[C@H](Nc1c(F)c(-c2n[nH]c(=O)o2)cc(Cl)c1Cl)C1CCNCC1 [Example 87, 5-(4,5-dichloro-2-fluoro-3-{[(1S)-1-(piperidin-4-yl)ethyl]amino}phenyl)-1,3,4-oxadiazol-2(3H)-one hydrochloride] in this work.

A GI50 [1] of 0.28 µM and an IC50 [2] of 0.0026 µM were found for C[C@H](Nc1cc(-c2n[nH]c(=O)o2)cc(N)c1Cl)C1CCNCC1 [Example 92, 5-(3-amino-4-chloro-5-{[(1S)-1-(piperidin-4-yl)ethyl]amino}phenyl)-1,3,4-oxadiazol-2(3H)-one dihydrochloride] in this work.

A GI50 [1] of 0.36 µM and an IC50 [2] of 0.0082 µM were found for O=c1[nH]nc(-c2cc(F)c(C(F)(F)F)c(NCC3(F)CCNCC3)c2)o1 [Example 129, 5-[3-fluoro-5-{[(4-fluoropiperidin-4-yl)methyl]amino}-4-(trifluoromethyl)phenyl]-1,3,4-oxadiazol-2(3H)-one hydrochloride] in this work.

A GI50 [1] of 0.61 µM and an IC50 [2] of 0.026 µM were found for Cc1ccc(-c2n[nH]c(=O)o2)cc1NC[C@H]1CC[C@H](N)CC1 [Example 67, 5-[3-({[(1r,4r)-4-aminocyclohexyl]methyl}amino)-4-methylphenyl]-1,3,4-oxadiazol-2(3H)-one hydrochloride] in this work.

A GI50 [1] of 1.8 µM and an IC50 [2] of 0.0037 µM were found for O=c1[nH]nc(-c2ccc(Br)c(NCC3CCNCC3)c2)o1 [Example 50, 5-(4-bromo-3-{[(piperidin-4-yl)methyl]amino}phenyl)-1,3,4-oxadiazol-2(3H)-one hydrochloride] in this work.

A GI50 [1] of 0.068 µM and an IC50 [2] of 0.0035 µM were found for CC[C@H](Nc1cc(-c2n[nH]c(=O)o2)ccc1C(F)(F)F)[C@H]1CC[C@H](N)CC1 [Example 181, 5-[3-({(1S)-1-[(1r,4S)-4-aminocyclohexyl]propyl}amino)-4-(trifluoromethyl)phenyl]-1,3,4-oxadiazol-2(3H)-one hydrochloride] in this work.

A GI50 [1] of 0.59 µM and an IC50 [2] of 0.011 µM were found for C[C@H](Nc1cc(-c2n[nH]c(=O)o2)c(F)cc1Cl)C1CCNCC1 [Example 95, 5-(4-chloro-2-fluoro-5-{[(1S)-1-(piperidin-4-yl)ethyl]amino}phenyl)-1,3,4-oxadiazol-2(3H)-one hydrochloride] in this work.

A GI50 [1] of 2.6 µM and an IC50 [2] of 0.29 µM were found for O=c1[nH]nc(-c2ccc(C(F)(F)F)c(N[C@@H]3CCC34CCNCC4)c2)o1 [Example 46, 5-[3-{[(1R)-7-azaspiro[3.5]nonan-1-yl]amino}-4-(trifluoromethyl)phenyl]-1,3,4-oxadiazol-2(3H)-one hydrochloride] in this work.
